Test results as given in US10487117B2, “Antimicrobial peptide for nosocomial infections” (priority 2015, dated 2019).
Residues, ends and D or L forms follow the SMILES beside them.

Assays:
[1] = system: planktonic P. aeruginosa; assay: DiSC3(5) cytoplasmic membrane depolarization assay, planktonic; assay type: cell-based, Pseudomonas aeruginosa; settings: for Depolarization %max: 10% Triton X-100 as maximum reference
Experimental: To further investigate the antimicrobial mechanism of action of the peptide, its ability to depolarize P. aeruginosa membranes was evaluated. Depolarization activity was analyzed by the DiSC3(5) assay (Table 5). DiSC3(5) is a fluorescent probe, which is sensitive to membrane potential. The DiSC3(5) fluorescence is quenched upon interaction with intact cell membranes. When the membrane potential is lost, the probe is released to the medium, resulting in an increase of fluorescence that can be recorded as a function of peptide concentration. Thus, the half depolarization action (ED50) was evaluated, defined as the peptide concentration needed to achieve a half-depolarization effect, and the total depolarization activity at final incubation time (Table 3).
(§1) Membrane depolarization was followed using the method described earlier (Torrent M. et al. 2008). Briefly, bacterial cells were grown at 37° C. to an OD600=0.2, centrifuged at 5000×g for 7 min, washed with 5 mM Hepes at pH 7.2 containing 20 mM glucose, and resuspended in 5 mM Hepes-KOH, 20 mM glucose, and 100 mM KCl at pH 7.2 to an OD600=0.05 and 200 μl were transferred to a microtiter plate for planktonic assays. For biofilm assay, 24 h formed P. aeruginosa biofilm in a 96-well microtiter plate were washed three times with sterile PBS. Afterwards P. aeruginosa biofilms were washed with 5 mM Hepes at pH 7.2 containing 20 mM glucose, and rinsed in 5 mM Hepes-KOH, 20 mM glucose, and 100 mM KCl at pH 7.2. In both cases, DiSC3(5) was added to a final concentration of 0.4 μM and changes in the fluorescence were continuously recorded after addition of peptides at 10 μM in a Victor3 plate reader. A maximum reference value for total depolarization is calculated for Triton X-100 at 10%. Alternatively, changes in the fluorescence were continuously recorded after addition of a serially diluted protein/peptides from 50 to 0.1 μM. The peptide concentration required to achieve half of total and total membrane depolarization after 40 min incubation time was estimated from nonlinear regression analysis as previously described (Torrent M. et al. 2010)

[2] = system: LPS (lipopolysaccharides) from P. aeruginosa; assay: LPS binding assay, BODIPY TR cadaverine (BC) displacement; parameters: species or system Pseudomonas aeruginosa; settings: 100% = total displacement of the dye; mean ± SEM
Experimental: Following, LPS binding affinity was monitored by a fluorometric assay which measures the competitive displacement of a cadaverine fluorescent probe (BC) by the protein and peptides. The half LPS binding affinity (ED50), defined as the AMP concentration needed to achieve half of BC displacement, and the total LPS binding affinity, expressed as a percentage, were determined (Table 4). Interaction with negatively charged surfaces of bacteria is the first step for cationic peptides to reach the bacterial membranes and exert their antimicrobial action.
LPS binding was assessed using the fluorescent probe BODIPY TR cadaverine (BC) as previously described (Pulido D. et al. Febs J 2013). BC binds strongly to native LPS, specifically recognizing the lipid A portion. When a protein that interacts with LPS is added, BC is displaced from the complex and its fluorescence is increased, decreasing its occupancy factor. LPS-binding assays were carried out in a 10 mM Hepes buffer at pH 7.5. The displacement assay was performed using a 96 well microtiter plate containing stirred mixture of either LPS (10 μg/mL) and BC (10 μM). Protein/peptides were serially diluted from 10 to 0.1 μM. Fluorescence measurements were performed on a Victor3 plate reader (Perkin Elmer, Waltham, Mass.). The protein/peptide concentration required to achieve half of total and total BC displacement was estimated from nonlinear regression analysis as previously described (Wood S. J. et al. 2004)

[3] = system: established P. aeruginosa biofilms; assay: SYTOX Green membrane permeabilization assay on biofilm; assay type: cell-based, Pseudomonas aeruginosa; settings: maximum percentage at final incubation time, 10% Triton X-100 reference
Experimental: Membrane permeabilization was followed using the method SYTOX Green Fluorescence membrane permeabilization assay. In the planktonic assay, bacterial cells were grown at 37° C. to an OD600=0.2, centrifuged at 5000×g for 5 min, and resuspended in 1×PBS to an OD600=0.2. An aliquot of 200 μl was then transferred to a microtiter plate. For biofilm assay, 24 h formed P. aeruginosa biofilm in a 96-well microtiter plate were washed three times with sterile PBS. SYTOX Green was added to a final concentration of 1 μM and incubated 15 min in darkness. Changes in the fluorescence were continuously recorded after addition of a serially diluted protein/peptides from 50 to 0.1 μM in a Victor3 plate reader. The peptide concentration required to achieve half of total and total membrane permeabilization achieved after 40 min was estimated from nonlinear regression analysis as previously described (Pulido D. et al. Antimicrob Agents Chemother 2013). A maximum reference value was taken for Triton X-100 at 10%.
(§2) Thereupon, the antimicrobial mechanism of action of the RNase 3 derived peptide on P. aeruginosa biofilms was further characterized with the depolarization and permeabilization assays. As applied for the P. aeruginosa planktonic culture, the fluorescent DisC3(5) assay was also used here in order to monitor the depolarization activity of the studied protein and peptides against established biofilms. Therefore, we have measured the half depolarization action (ED50), and the total depolarization activity expressed as a percentage (Table 7). […] Similar results were obtained for the Sytox Green permeabilization assay, where the total permeabilization effect was hindered for all the AMPs tested, and between two to ten times higher concentrations were required to achieve half of the biofilm cell permeabilizing effect in comparison to the planktonic cells.

[4] = system: established P. aeruginosa biofilms; assay: DiSC3(5) membrane depolarization assay on biofilm; assay type: cell-based, Pseudomonas aeruginosa; settings: maximum percentage at final incubation time, 10% Triton X-100 reference
Experimental: as §1, §2

SMILES	Depolarization ED50 ([1]; 40 min, N.D. = not detected at 50 μM)	LPS binding %max (percentage of maximum displacement) [2]	Permeabilization Mean % ± SEM [3]	Depolarization Mean % ± SEM [4]	Depolarization %max [1]
CC[C@H](C)[C@H](NC(=O)[C@H](CCC(N)=O)NC(=O)CN)C(=O)N[C@H](C(=O)N[C@@H](CC(N)=O)C(=O)N[C@@H](CC(C)C)C(=O)N[C@@H](CCCCN)C(=O)N[C@@H](C)C(=O)N[C@@H](CO)C(=O)N[C@@H](CC(C)C)C(=O)N[C@@H](CC(=O)O)C(=O)N[C@@H](CC(C)C)C(=O)N[C@@H](CC(C)C)C(N)=O)[C@@H](C)CC [GL-13, GQIINLKASLDLL-NH2] (H-GQIINLKASLDLL-NH2)	not able to produce any depolarization effect	44.37 ± 3.84%			
CC[C@H](C)[C@H](NC(=O)[C@H](CCCCN)NC(=O)[C@H](CCC(=O)O)NC(=O)[C@H](CCCCN)NC(=O)[C@H](CO)NC(=O)[C@H](CCCCN)NC(=O)[C@H](CCCNC(=N)N)NC(=O)[C@H](Cc1ccccc1)NC(=O)[C@H](Cc1ccccc1)NC(=O)[C@H](CC(=O)O)NC(=O)CNC(=O)[C@H](CC(C)C)NC(=O)[C@@H](N)CC(C)C)C(=O)NCC(=O)N[C@@H](CCCCN)C(=O)N[C@@H](CCC(=O)O)C(=O)N[C@@H](Cc1ccccc1)C(=O)N[C@@H](CCCCN)C(=O)N[C@@H](CCCNC(=N)N)C(=O)N[C@H](C(=O)N[C@H](C(=O)N[C@@H](CCC(N)=O)C(=O)N[C@@H](CCCNC(=N)N)C(=O)N[C@H](C(=O)N[C@@H](CCCCN)C(=O)N[C@@H](CC(=O)O)C(=O)N[C@@H](Cc1ccccc1)C(=O)N[C@@H](CC(C)C)C(=O)N[C@@H](CCCNC(=N)N)C(=O)N[C@@H](CC(N)=O)C(=O)N[C@@H](CC(C)C)C(=O)N[C@H](C(=O)N1CCC[C@H]1C(=O)N[C@@H](CCCNC(=N)N)C(=O)N[C@H](C(=O)N[C@@H](CCC(=O)O)C(=O)N[C@@H](CO)C(N)=O)[C@@H](C)O)C(C)C)[C@@H](C)CC)C(C)C)[C@@H](C)CC [LL-37]			24.21 ± 3.71%	31.85 ± 1.15%	28.24 ± 2.91%
CC[C@H](C)[C@H](NC(=O)CNC(=O)[C@@H](NC(=O)[C@H](CCCCN)NC(=O)[C@H](CCCCN)NC(=O)[C@H](Cc1ccccc1)NC(=O)[C@H](CC(C)C)NC(=O)[C@H](CCCCN)NC(=O)[C@H](Cc1c[nH]c2ccccc12)NC(=O)[C@@H](N)CCCCN)[C@@H](C)CC)C(=O)NCC(=O)N[C@@H](C)C(=O)N[C@H](C(=O)N[C@@H](CC(C)C)C(=O)N[C@@H](CCCCN)C(=O)N[C@H](C(=O)N[C@@H](CC(C)C)C(=O)N[C@H](C(=O)N[C@H](C(=O)NCC(=O)N[C@@H](CC(C)C)C(=O)N1CCC[C@H]1C(=O)N[C@@H](C)C(=O)N[C@@H](CC(C)C)C(=O)N[C@H](C(=O)N[C@@H](CO)C(N)=O)[C@@H](C)CC)[C@@H](C)O)[C@@H](C)O)C(C)C)C(C)C [CA-M]		69.16 ± 6.23%	23.01 ± 1.13%	39.09 ± 2.46%	71.36 ± 7.60%
